Drawing on patent publication US9428503B2, “Imidazo[4,5-c]quinolin-2-one compounds and their use in treating Cancer” (AstraZeneca AB, priority 2014, dated 2016), this text covers IC50 for 23 compounds.

Several values for one entry are separate records, joined by “and”; a condition that tells them apart may be missing. Equal values may be shown once. Where a name gives a salt, the structure may show the parent alone. Some results are limits rather than exact numbers.

Common to all, as to type: cell-based
The target in one assay is PI3K-α (Homo sapiens, UniProt P42336). The assay is described as follows: Assay c) PI3K cellular potency assay (phospho-Akt T308 ELISA in BT474 cells). Conditions: BT474 cells, phospho-Akt T308, 2 h; geometric mean where repeated; read-out: Assay c) PI3Kα Cell IC50. On the technique in general: ELISA stands for enzyme-linked immunosorbent assay.
The target in the next assay is mTOR (Homo sapiens (Human), UniProt P42345). The experiment in a line: Assay d) mTOR cellular potency assay (phospho-AKT Ser473 in MDA-MB-468 cells). To be noted: MDA-MB-468 cells, phospho-AKT Ser473, 2 h; geometric mean where repeated; read-out: Assay d) mTOR Cell IC50.
The target in another assay is ATR kinase (Homo sapiens (Human), UniProt Q13535). The experiment in a line: Assay b) ATR cellular potency assay (pChk1 Ser345 in HT29 cells treated with 4NQO). Conditions: HT29 cells, pChk1 Ser345 after 4NQO; geometric mean where repeated; read-out: Assay b) ATR Cell IC50.
The target of another assay is ATM kinase (Homo sapiens (Human), UniProt Q13315). The assay is described as follows: Assay a) ATM cellular potency assay (pATM Ser1981 in X-ray irradiated HT29 cells). To be noted: HT29 cells, pATM Ser1981 after X-ray irradiation; geometric mean where repeated; read-out: Assay a) ATM Cell IC50.

Chain of ATR kinase (Q13535 whole entry): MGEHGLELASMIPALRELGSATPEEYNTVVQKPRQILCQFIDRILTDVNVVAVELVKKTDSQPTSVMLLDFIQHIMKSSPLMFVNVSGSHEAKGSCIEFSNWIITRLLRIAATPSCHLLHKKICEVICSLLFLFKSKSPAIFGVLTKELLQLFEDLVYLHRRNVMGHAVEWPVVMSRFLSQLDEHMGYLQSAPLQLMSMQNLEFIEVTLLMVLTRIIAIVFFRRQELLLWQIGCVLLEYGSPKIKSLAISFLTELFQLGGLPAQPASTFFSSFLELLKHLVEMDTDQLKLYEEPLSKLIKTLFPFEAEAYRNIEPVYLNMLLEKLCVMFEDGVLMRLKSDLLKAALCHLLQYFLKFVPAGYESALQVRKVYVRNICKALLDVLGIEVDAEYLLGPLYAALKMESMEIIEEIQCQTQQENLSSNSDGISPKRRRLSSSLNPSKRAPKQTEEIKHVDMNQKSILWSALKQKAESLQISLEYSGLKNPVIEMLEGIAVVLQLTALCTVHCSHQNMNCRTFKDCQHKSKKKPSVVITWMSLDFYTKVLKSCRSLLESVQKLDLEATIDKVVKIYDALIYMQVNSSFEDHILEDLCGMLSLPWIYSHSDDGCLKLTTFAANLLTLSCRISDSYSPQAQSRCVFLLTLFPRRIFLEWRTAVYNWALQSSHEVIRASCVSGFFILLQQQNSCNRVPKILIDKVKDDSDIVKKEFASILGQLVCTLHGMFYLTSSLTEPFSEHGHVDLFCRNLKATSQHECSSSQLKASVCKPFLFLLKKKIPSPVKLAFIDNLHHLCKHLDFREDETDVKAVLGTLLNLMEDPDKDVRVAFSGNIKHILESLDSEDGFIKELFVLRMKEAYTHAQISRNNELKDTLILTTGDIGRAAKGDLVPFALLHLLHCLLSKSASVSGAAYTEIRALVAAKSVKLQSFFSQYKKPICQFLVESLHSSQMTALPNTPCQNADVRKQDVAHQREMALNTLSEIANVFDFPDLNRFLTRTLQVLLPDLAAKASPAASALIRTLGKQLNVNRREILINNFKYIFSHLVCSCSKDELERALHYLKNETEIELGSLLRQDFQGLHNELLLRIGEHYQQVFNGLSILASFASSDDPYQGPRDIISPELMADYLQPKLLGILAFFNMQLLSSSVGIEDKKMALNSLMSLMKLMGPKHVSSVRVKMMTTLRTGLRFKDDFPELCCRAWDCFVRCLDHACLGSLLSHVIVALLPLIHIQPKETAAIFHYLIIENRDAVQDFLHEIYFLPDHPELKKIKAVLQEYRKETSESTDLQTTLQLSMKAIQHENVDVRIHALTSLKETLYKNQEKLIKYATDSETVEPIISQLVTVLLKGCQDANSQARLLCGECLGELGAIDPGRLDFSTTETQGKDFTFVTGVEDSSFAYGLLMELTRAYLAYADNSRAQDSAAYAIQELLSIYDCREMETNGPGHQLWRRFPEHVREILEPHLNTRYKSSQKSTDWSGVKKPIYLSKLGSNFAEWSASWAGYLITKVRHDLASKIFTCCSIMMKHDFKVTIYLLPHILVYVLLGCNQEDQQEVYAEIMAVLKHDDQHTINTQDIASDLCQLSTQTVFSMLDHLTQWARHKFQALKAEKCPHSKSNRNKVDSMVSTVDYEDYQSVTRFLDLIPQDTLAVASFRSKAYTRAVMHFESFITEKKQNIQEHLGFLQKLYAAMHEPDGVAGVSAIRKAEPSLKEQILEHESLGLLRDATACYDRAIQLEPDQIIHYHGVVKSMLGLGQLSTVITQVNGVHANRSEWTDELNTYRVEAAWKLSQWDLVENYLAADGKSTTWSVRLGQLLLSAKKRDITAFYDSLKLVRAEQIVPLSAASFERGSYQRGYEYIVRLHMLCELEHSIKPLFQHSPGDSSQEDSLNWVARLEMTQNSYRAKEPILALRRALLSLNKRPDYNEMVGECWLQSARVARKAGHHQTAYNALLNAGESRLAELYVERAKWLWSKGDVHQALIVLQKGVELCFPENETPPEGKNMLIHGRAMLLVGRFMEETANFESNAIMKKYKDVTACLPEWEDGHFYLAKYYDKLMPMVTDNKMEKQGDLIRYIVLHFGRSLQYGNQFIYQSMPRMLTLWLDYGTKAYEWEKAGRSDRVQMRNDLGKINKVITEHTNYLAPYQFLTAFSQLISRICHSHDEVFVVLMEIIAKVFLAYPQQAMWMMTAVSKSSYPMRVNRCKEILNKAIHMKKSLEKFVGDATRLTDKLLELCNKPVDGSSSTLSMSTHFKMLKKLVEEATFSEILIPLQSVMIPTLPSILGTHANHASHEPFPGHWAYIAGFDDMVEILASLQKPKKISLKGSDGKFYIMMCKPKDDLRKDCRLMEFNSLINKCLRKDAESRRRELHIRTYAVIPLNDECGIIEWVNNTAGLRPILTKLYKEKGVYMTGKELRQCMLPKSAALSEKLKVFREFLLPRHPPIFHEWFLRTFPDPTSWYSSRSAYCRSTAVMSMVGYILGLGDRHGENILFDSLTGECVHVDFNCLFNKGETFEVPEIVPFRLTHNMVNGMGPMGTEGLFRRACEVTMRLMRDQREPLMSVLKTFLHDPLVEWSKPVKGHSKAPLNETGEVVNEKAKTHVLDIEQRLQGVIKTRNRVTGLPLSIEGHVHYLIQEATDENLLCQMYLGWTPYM
Chain of ATR kinase (Q8WXE1 whole entry partner): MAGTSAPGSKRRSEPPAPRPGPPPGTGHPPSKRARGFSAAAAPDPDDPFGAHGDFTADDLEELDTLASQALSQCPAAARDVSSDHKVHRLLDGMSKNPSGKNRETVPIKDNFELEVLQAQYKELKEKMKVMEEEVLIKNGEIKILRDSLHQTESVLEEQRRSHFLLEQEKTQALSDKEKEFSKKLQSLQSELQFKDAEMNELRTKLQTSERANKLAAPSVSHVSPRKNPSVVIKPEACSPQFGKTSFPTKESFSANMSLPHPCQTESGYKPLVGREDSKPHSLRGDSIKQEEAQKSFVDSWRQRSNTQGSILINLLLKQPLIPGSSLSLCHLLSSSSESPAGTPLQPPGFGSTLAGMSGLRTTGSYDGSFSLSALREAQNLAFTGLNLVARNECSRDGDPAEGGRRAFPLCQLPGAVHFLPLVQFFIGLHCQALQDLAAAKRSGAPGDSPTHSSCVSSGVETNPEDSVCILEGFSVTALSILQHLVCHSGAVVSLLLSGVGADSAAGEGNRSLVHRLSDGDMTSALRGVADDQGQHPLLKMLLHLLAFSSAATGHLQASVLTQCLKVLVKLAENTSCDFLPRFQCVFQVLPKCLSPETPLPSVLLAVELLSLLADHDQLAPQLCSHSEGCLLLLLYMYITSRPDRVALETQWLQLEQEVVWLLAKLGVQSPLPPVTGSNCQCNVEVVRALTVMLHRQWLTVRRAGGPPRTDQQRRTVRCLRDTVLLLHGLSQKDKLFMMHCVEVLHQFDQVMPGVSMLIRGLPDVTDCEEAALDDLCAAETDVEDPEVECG
Chain of PI3K-α (P42336 whole entry, looked up): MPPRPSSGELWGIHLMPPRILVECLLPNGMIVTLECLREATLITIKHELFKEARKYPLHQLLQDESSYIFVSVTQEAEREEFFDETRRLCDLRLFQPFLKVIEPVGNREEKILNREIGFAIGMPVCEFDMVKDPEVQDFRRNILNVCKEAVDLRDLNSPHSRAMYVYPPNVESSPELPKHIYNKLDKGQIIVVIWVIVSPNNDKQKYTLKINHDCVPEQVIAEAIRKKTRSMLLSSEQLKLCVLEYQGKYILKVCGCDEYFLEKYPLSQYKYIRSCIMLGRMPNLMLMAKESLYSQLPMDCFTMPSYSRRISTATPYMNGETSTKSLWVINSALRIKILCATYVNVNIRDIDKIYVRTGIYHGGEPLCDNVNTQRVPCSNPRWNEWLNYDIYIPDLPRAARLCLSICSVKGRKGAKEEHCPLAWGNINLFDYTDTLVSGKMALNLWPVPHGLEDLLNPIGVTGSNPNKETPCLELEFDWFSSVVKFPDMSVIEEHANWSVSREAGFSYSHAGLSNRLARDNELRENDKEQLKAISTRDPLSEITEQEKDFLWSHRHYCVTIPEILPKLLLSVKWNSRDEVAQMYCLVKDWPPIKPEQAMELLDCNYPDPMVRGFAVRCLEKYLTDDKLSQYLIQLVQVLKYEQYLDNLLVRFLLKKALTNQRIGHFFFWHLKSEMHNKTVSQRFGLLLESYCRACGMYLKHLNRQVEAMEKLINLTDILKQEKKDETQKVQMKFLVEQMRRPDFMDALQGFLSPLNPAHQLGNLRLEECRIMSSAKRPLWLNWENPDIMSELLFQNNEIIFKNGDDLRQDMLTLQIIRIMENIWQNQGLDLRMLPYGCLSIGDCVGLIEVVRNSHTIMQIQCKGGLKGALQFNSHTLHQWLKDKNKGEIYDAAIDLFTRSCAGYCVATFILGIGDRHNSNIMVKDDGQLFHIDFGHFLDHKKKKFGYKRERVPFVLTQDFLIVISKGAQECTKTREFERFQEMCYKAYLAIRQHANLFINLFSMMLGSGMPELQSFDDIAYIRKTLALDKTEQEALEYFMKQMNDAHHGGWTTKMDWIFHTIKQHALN

In general, IC50 refers to the concentration needed to halve the response being measured. Take `CO[C@H]1C[C@@H](n2c(=O)n(C)c3cnc4ccc(-c5ccc(OCCCN6CCCCC6)nc5)cc4c32)C1` [Example 33, 1-(cis-3-methoxycyclobutyl)-3-methyl-8-[6-(3-piperidin-1-ylpropoxy)pyridin-3-yl]imidazo[4,5-c]quinolin-2-one]: the IC50 at PI3K-α came to 12400 nM; on mTOR, 2870 nM.

As for `CN(C)CCCOc1ccc(-c2ccc3ncc4c(c3c2)n(C2CCC2)c(=O)n4C)c(F)n1` [Example 51, 1-cyclobutyl-8-[6-[3-(dimethylamino)propoxy]-2-fluoro-3-pyridyl]-3-methyl-imidazo[4,5-c]quinolin-2-one methanesulfonic acid salt], the IC50 at PI3K-α was 3200 nM; on ATR kinase, > 30000 nM; at mTOR it was 5380 nM; on ATM kinase, 0.722 nM.

Consider `CO[C@H]1C[C@@H](n2c(=O)n(C)c3cnc4ccc(-c5ccc(OCCCN(C)C)nc5)cc4c32)C1` [Example 2, 8-[6-(3-Dimethylaminopropoxy)pyridin-3-yl]-1-(cis-3-methoxycyclobutyl)-3-methylimidazo[4,5-c]quinolin-2-one], for which the IC50 on PI3K-α is 1770 nM; on ATR kinase it was > 29000 nM; at mTOR, 1170 nM; on ATM kinase, 0.249 nM.

`CO[C@@H]1CC[C@@H](n2c(=O)n(C)c3cnc4ccc(-c5ccc(OCCCN(C)C)nc5F)cc4c32)C1` [Example 68, 8-[6-[3-(Dimethylamino)propoxy]-2-fluoro-3-pyridyl]-1-[(1R,3R)-3-methoxycyclopentyl]-3-methyl-imidazo[4,5-c]quinolin-2-one]: the IC50 at PI3K-α was 644 nM; on ATR kinase, > 29000 nM; at mTOR, 3180 nM; on ATM kinase, 0.208 nM.

As to `Cn1c(=O)n([C@H]2CCCOC2)c2c3cc(-c4ccc(OCCCN5CCCC5)nc4F)ccc3ncc21` [Example 61, 8-[2-Fluoro-6-(3-pyrrolidin-1-ylpropoxy)-3-pyridyl]-3-methyl-1-[(3S)-tetrahydropyran-3-yl]imidazo[4,5-c]quinolin-2-one], the IC50 was > 16200 nM at PI3K-α, > 30000 nM on ATR kinase and 0.554 nM at ATM kinase.

As for `CO[C@H]1CC[C@H](n2c(=O)n(C)c3cnc4ccc(-c5ccc(OCCCN(C)C)nc5F)cc4c32)C1` [Example 69, 8-[6-[3-(dimethylamino)propoxy]-2-fluoro-3-pyridyl]-1-[(1S,3S)-3-methoxycyclopentyl]-3-methyl-imidazo[4,5-c]quinolin-2-one], the IC50 is > 2770 nM on PI3K-α, > 30000 nM at ATR kinase and 0.324 nM on ATM kinase.

As to `CN(C)CCCOc1ccc(-c2ccc3ncc4c(c3c2)n([C@H]2CCCOC2)c(=O)n4C)cn1` [Example 17, 8-[6-(3-dimethylaminopropoxy)pyridin-3-yl]-3-methyl-1-[(3S)-oxan-3-yl]imidazo[5,4-c]quinolin-2-one], the half-maximal inhibitory concentration (IC50) was 968 nM at PI3K-α, > 30000 nM on ATR kinase and 1470 nM on mTOR.

On to `CN(C)CCCOc1ccc(-c2ccc3ncc4c(c3c2)n([C@@H]2CCCOC2)c(=O)n4C)cn1` [Example 16, 8-[6-(3-dimethylaminopropoxy)pyridin-3-yl]-3-methyl-1-[(3R)-oxan-3-yl]imidazo[5,4-c]quinolin-2-one], for which the IC50 on PI3K-α is 311 nM; at ATR kinase, > 22800 nM; on mTOR it was 714 nM.

For the compound `CO[C@@H]1CC[C@@H](n2c(=O)n(C)c3cnc4ccc(-c5ccc(OCCCN6CCCC6)nc5)cc4c32)C1` [Example 67, 1-[(1R,3R)-3-methoxycyclopentyl]-3-methyl-8-[6-(3-pyrrolidin-1-ylpropoxy)-3-pyridyl]imidazo[4,5-c]quinolin-2-one], the values for the IC50 on PI3K-α, at ATR kinase and at mTOR were > 2850 nM, 15200 nM and 996 nM, respectively.

In the case of `CN(C)CCCOc1ccc(-c2ccc3ncc4c(c3c2)n([C@H]2CCOC2)c(=O)n4C)c(F)n1` [Example 49, 8-[6-[3-(dimethylamino)propoxy]-2-fluoro-3-pyridyl]-3-methyl-1-[(3S)-tetrahydrofuran-3-yl]imidazo[4,5-c]quinolin-2-one methanesulfonic acid salt], the IC50 at ATR kinase is > 30000 nM; at mTOR it was 3760 nM; on ATM kinase, 1.34 nM.

As to `CO[C@H]1C[C@@H](n2c(=O)n(C)c3cnc4ccc(-c5ccc(OCCCN(C)C)nc5F)cc4c32)C1` [Example 18, 8-[6-(3-dimethylaminopropoxy)-2-fluoropyridin-3-yl]-1-(cis-3-methoxycyclobutyl)-3-methylimidazo[4,5-c]quinolin-2-one], the IC50 was 2730 nM at PI3K-α, > 30000 nM on ATR kinase and 3780 nM on mTOR.

For `CN(C)CCCOc1ccc(-c2ccc3ncc4c(c3c2)n(C2CCC2)c(=O)n4C)cn1` [Example 46, 1-cyclobutyl-8-[6-[3-(dimethylamino)propoxy]-3-pyridyl]-3-methyl-imidazo[4,5-c]quinolin-2-one methanesulfonic acid salt], the figures for the 50% inhibitory concentration (IC50) at PI3K-α, at ATR kinase and on ATM kinase were 794 nM, > 26000 nM and 3.15 nM, respectively.

Consider `CO[C@H]1CC[C@H](n2c(=O)n(C)c3cnc4ccc(-c5ccc(OCCCN6CCCC6)nc5)cc4c32)C1` [Example 66, 1-[(1S,3S)-3-methoxycyclopentyl]-3-methyl-8-[6-(3-pyrrolidin-1-ylpropoxy)-3-pyridyl]imidazo[4,5-c]quinolin-2-one], for which the IC50 amounted to 1490 nM at PI3K-α, 7850 nM at ATR kinase and 3320 nM on mTOR.

Turning to `Cn1c(=O)n([C@@H]2CCOC2)c2c3cc(-c4ccc(OCCCN5CCCCC5)nc4)ccc3ncc21` [Example 54, 3-methyl-8-[6-[3-(1-piperidyl)propoxy]-3-pyridyl]-1-[(3R)-tetrahydrofuran-3-yl]imidazo[4,5-c]quinolin-2-one methane sulfonic acid salt], the IC50 is > 27100 nM on ATR kinase; 1.1 nM and 0.715 nM at ATM kinase.

In the case of `CN(C)CCCOc1ccc(-c2ccc3ncc4c(c3c2)n(C2COC2)c(=O)n4C)c(F)n1` [Example 52, 8-[6-[3-(dimethylamino)propoxy]-2-fluoro-3-pyridyl]-3-methyl-1-(oxetan-3-yl)imidazo[4,5-c]quinolin-2-one methanesulfonic acid salt], the IC50 was 7200 nM at PI3K-α, > 30000 nM on ATR kinase and 12100 nM at mTOR.

As to `Cn1c(=O)n([C@@H]2CCCOC2)c2c3cc(-c4ccc(OCCCN5CCCC5)nc4)ccc3ncc21` [Example 59, 3-methyl-8-[6-(3-pyrrolidin-1-ylpropoxy)-3-pyridyl]-1-[(3R)-tetrahydropyran-3-yl]imidazo[4,5-c]quinolin-2-one], the figures for the half-inhibitory concentration (IC50) on PI3K-α, at ATR kinase and at mTOR were 264 nM, > 19100 nM and 610 nM, respectively.

As for `CO[C@H]1C[C@@H](n2c(=O)n(C)c3cnc4ccc(-c5ccc(OCCCN6CCCC6)nc5)cc4c32)C1` [Example 28, 1-(cis-3-methoxycyclobutyl)-3-methyl-8-[6-(3-pyrroldin-1-ylpropoxy)pyridin-3-yl]imidazo[4,5-c]quinolin-2-one], the half-maximal inhibitory concentration (IC50) on ATR kinase is > 22800 nM; at mTOR, 2770 nM; on ATM kinase, 0.176 nM.

As to `Cn1c(=O)n([C@H]2CCOC2)c2c3cc(-c4ccc(OCCCN5CCCCC5)nc4)ccc3ncc21` [Example 55, 3-methyl-8-[6-[3-(1-piperidyl)propoxy]-3-pyridyl]-1-[(3S)-tetrahydrofuran-3-yl]imidazo[4,5-c]quinolin-2-one], the half-maximal inhibitory concentration (IC50) on ATR kinase was > 16100 nM; at ATM kinase, 0.493 nM.

As to `Cn1c(=O)n(C2CCOCC2)c2c3cc(-c4ccc(OCCCN5CCCC5)nc4)ccc3ncc21` [Example 30, 3-methyl-1-(oxan-4-yl)-8-[6-(3-pyrrolidin-1-ylpropoxy)pyridin-3-yl]imidazo[5,4-c]quinolin-2-one], the concentration for half-maximal inhibition (IC50) at PI3K-α came out at 2330 nM; at ATR kinase, 19000 nM; at mTOR it was 1570 nM.

For the compound `Cn1c(=O)n([C@H]2CCCOC2)c2c3cc(-c4ccc(OCCCN5CCCC5)nc4)ccc3ncc21` [Example 29, 3-methyl-1-[(3S)-oxan-3-yl]-8-[6-(3-pyrrolidin-1-ylpropoxy)pyridin-3-yl]imidazo[5,4-c]quinolin-2-one], the concentration for half-maximal inhibition (IC50) at PI3K-α came out at 1650 nM; at ATR kinase it was 19000 nM; on mTOR it was 605 nM.

In the case of `CO[C@H]1C[C@@H](n2c(=O)n(C)c3cnc4cc(F)c(-c5ccc(OCCCN6CCCC6)nc5)cc4c32)C1` [Example 27, 7-Fluoro-1-(cis-3-methoxycyclobutyl)-3-methyl-8-[6-(3-pyrrolidin-1-ylpropoxy)pyridin-3-yl]imidazo[4,5-c]quinolin-2-one], the IC50 was > 29800 nM on PI3K-α, > 23300 nM at ATR kinase and > 17500 nM on mTOR.

Consider `CO[C@@H]1CC[C@@H](n2c(=O)n(C)c3cnc4cc(F)c(-c5ccc(OCCCN(C)C)nc5)cc4c32)C1` [Example 62, 8-[6-[3-(Dimethylamino)propoxy]-3-pyridyl]-7-fluoro-1-[(1R,3R)-3-methoxycyclopentyl]-3-methyl-imidazo[4,5-c]quinolin-2-one], for which the concentration for half-maximal inhibition (IC50) is > 30000 nM on mTOR and 0.507 nM on ATM kinase.

Take `CN(C)CCCOc1ccc(-c2ccc3ncc4c(c3c2)n([C@@H]2CCOC2)c(=O)n4C)c(F)n1` [Example 50]: the half-maximal inhibitory concentration (IC50) at ATR kinase was > 30000 nM; on mTOR it was 4480 nM; at ATM kinase, 1.44 nM.
